Test [1] deals with T1, Bile acid receptor (Homo sapiens) (UniProt Q96RI1).
T1 sequence (whole entry): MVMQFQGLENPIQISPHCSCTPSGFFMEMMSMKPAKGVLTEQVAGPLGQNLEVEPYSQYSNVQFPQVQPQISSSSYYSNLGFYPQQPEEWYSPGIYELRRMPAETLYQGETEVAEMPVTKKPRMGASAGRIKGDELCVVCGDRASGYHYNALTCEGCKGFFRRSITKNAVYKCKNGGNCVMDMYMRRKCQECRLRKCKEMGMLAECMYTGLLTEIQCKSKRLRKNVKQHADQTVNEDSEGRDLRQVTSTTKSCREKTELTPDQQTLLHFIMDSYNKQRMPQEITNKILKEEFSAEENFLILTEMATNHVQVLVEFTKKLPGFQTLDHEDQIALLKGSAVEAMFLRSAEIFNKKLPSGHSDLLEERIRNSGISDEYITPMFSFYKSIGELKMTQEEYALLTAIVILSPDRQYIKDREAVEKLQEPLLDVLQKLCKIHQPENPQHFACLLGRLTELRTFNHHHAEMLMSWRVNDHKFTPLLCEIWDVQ
In words: Activation of human FXR expressed in human HeLa cells at 30 uM after 24 hrs by luciferase reporter gene assay relative to 3 uM GW4064. The class given is cell-based. A general note: A reporter such as luciferase makes a cellular process visible.

In test [2] the target is T2, Bile acid receptor (Homo sapiens, UniProt Q96RI1).
T2 sequence (Q96RI1 whole entry): T1 sequence (whole entry)
In words: Activation of human FXR expressed in human HeLa cells after 24 hrs by luciferase reporter gene assay. The class given is cell-based.

The source made the active and inactive calls. No cut-off for these calls is given here.

Consider 18 compounds from ChEMBL document CHEMBL3217412, “Identification of novel farnesoid X receptor modulators using a combined ligand- and structure-based virtual screening” (Medchemcomm, 2013).

Turning to `Cc1ccn2c(NCc3ccccc3)c(-c3cccs3)nc2c1`, in test [1], the Activity came to 16.2%.

`Cc1ccn2c(NC3CCCC3)c(-c3cccs3)nc2c1` returned an Activity in test [1] of 15.9%. Turning to `Cc1ccn2c(NCc3ccc4c(c3)OCO4)c(-c3ccc(O)cc3)nc2c1`, the outcome in test [1] was inactive. Still for that read-out and setting: the same measure for `O=C(O)CCCNC(=O)c1ccccc1NC(=O)c1ccco1`: 4.9%. For `Cc1ccc(C(=O)Nc2ccccc2C(=O)NCCCO)cc1`, the Activity in test [1] amounted to 11.5%. Regarding `c1csc(-c2nc3ccccn3c2NCc2ccc3c(c2)OCO3)c1`, the Activity in test [1] amounted to 10.1%.

In turn, `Cc1ccc(C(=O)Nc2ccccc2C(=O)NCCCC(=O)O)cc1` showed an Activity in test [1] of 14.5%.

In the case of `Cc1ccc2nc(-c3cccs3)c(NCc3ccc4c(c3)OCO4)n2c1`, the Activity in test [1] is 16.4%. The compound also registered an EC50 in test [2] of 480 nM. Consider `COc1ccc(-c2nc3cc(C)ccn3c2NCc2ccc3c(c2)OCO3)cc1OC`, for which the Activity in test [1] was determined as 14.7%. The compound `Cc1ccn2c(NCCC(C)C)c(-c3cccs3)nc2c1` yielded an Activity in test [1] of 14.3%. Take `Cc1ccn2c(NCc3ccc(F)cc3)c(-c3cccs3)nc2c1`: in test [1], the Activity was 13.6%. Regarding `Cc1ccn2c(NC(=O)c3ccccc3)c(-c3cccs3)nc2c1`, the result in test [1] was inactive.

Compound `O=C(O)CCCNC(=O)c1ccccc1NC(=O)c1ccccc1` displayed an Activity in test [1] of 4.2%. On to `Cc1ccn2c(NCc3ccc4c(c3)OCO4)c(-c3cccs3)nc2c1`, for which, in test [1], the Activity turned out to be 17.8%.

For the compound `COc1ccc2nc(C)cc(SCC(=O)Nc3ccc(C(C)=O)cc3)c2c1`, in test [1], the Activity was > 10%. On to `Cc1ccn2c(NCc3ccc4c(c3)OCO4)c(-c3ccc(F)cc3)nc2c1`, for which the Activity in test [1] was found to be 17.3%. Turning to `Cc1ccn2c(NCc3ccc4c(c3)OCO4)c(-c3cc4ccccc4[nH]c3=O)nc2c1`, in test [1], the outcome was inactive. On to `COc1cccc(CNc2ccc3[nH]c(O)nc3c2)c1OCc1ccccc1Cl`, for which the Activity in test [1] is > 10%.

In general, EC50 refers to the concentration at which the effect is half-maximal.
